Assay results taken from the supplement of paper PMC10307832.

Assays:
Experiment in all cases: relative viability (nuclei count vs DMSO), 5 days (fraction); higher = more cells survive
[1] = test system: HARA
In short: (§1)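 A single step with final 0.05% Triton X-100, 1% formaldehyde and 1 ug/ml Hoechst fixed the cells and stained nuclei 5 days after treatment. Lung cancer cell lines in 1536-well plates had been treated by pin tool the day after seeding with one drug alone or a fixed anchor-drug dose plus five library-drug doses (not always all listed) in √10 steps, and nuclei were counted on 4× images. Relative viability is the ratio of nuclei in treated wells to nuclei in vehicle wells, taken as the median of duplicate plates.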

[2] = test system: NCI-H2170
In short: as §1

[3] = test system: A-427
In short: as §1

[4] = test system: SK-MES-1
In short: as §1

[5] = test system: NCI-H2009
In short: as §1

[6] = test system: NCI-H2228
In short: as §1

[7] = test system: SW 1573
In short: as §1

[8] = test system: NCI-H1993
In short: as §1

[9] = test system: NCI-H522
In short: as §1

[10] = test system: LK-2
In short: as §1

[11] = test system: NCI-H322M
In short: as §1

[12] = test system: HOP-62
In short: as §1

[13] = test system: NCI-H1792
In short: as §1

[14] = test system: ABC-1
In short: as §1

[15] = test system: LXF-289
In short: as §1

[16] = test system: SW 900
In short: as §1

[17] = test system: EMC-BAC-2
In short: as §1

[18] = test system: NCI-H727
In short: as §1

[19] = test system: NCI-H1944
In short: as §1

[20] = test system: NCI-H3122
In short: as §1

[21] = test system: PC-3 [JPC-3]
In short: as §1

`CCN(CC)CCCCNc1ncc2cc(-c3cc(OC)cc(OC)c3)c(NC(=O)NC(C)(C)C)nc2n1` + CC(=O)c1c(C)c2cnc(Nc3ccc(N4CCNCC4)cn3)nc2n(C2CCCC2)c1=O [Palbociclib] (partner 0.5 µM) showed a relative viability ([1]; first compound 0.01 µM) of 0.228, a relative viability ([1]; first compound 0.03162 µM) of 0.243 and a relative viability ([1]; first compound 0.1 µM) of 0.306. It also gave a relative viability ([1]; first compound 0.3162 µM) of 0.223, a relative viability ([1]; first compound 1 µM) of 0.269 and a relative viability ([2]; first compound 0.01 µM) of 0.38. The relative viability ([2]; first compound 0.03162 µM) was 0.37, the relative viability ([2]; first compound 0.1 µM) was 0.429 and the relative viability ([2]; first compound 0.3162 µM) was 0.409. The relative viability ([2]; first compound 1 µM) was 0.385, the relative viability ([3]; first compound 0.01 µM) was 0.58 and the relative viability ([3]; first compound 0.03162 µM) was 0.475. The relative viability ([3]; first compound 0.1 µM) was 0.59, the relative viability ([3]; first compound 0.3162 µM) was 0.501 and the relative viability ([3]; first compound 1 µM) was 0.398. The relative viability ([4]; first compound 0.01 µM) was 0.394, the relative viability ([4]; first compound 0.03162 µM) was 0.345 and the relative viability ([4]; first compound 0.1 µM) was 0.32. It also gave a relative viability ([4]; first compound 0.3162 µM) of 0.268, a relative viability ([4]; first compound 1 µM) of 0.297 and a relative viability ([5]; first compound 0.01 µM) of 0.211. The relative viability ([5]; first compound 0.03162 µM) was 0.22, the relative viability ([5]; first compound 0.1 µM) was 0.234 and the relative viability ([5]; first compound 0.3162 µM) was 0.196. It also gave a relative viability ([5]; first compound 1 µM) of 0.161, a relative viability ([6]; first compound 0.01 µM) of 1.23 and a relative viability ([6]; first compound 0.03162 µM) of 0.561. It also gave a relative viability ([6]; first compound 0.1 µM) of 0.434, a relative viability ([6]; first compound 0.3162 µM) of 0.862 and a relative viability ([6]; first compound 1 µM) of 0.513. For the same compound, the relative viability ([7]; first compound 0.01 µM) was 0.377, the relative viability ([7]; first compound 0.03162 µM) was 0.407 and the relative viability ([7]; first compound 0.1 µM) was 0.519. For the same compound, the relative viability ([7]; first compound 0.3162 µM) was 0.398, the relative viability ([7]; first compound 1 µM) was 0.331 and the relative viability ([8]; first compound 0.01 µM) was 0.368. The relative viability ([8]; first compound 0.03162 µM) was 0.763, the relative viability ([8]; first compound 0.1 µM) was 0.791 and the relative viability ([8]; first compound 0.3162 µM) was 0.661. For the same compound, the relative viability ([8]; first compound 1 µM) was 0.738, the relative viability ([9]; first compound 0.01 µM) was 1.04 and the relative viability ([9]; first compound 0.03162 µM) was 1.01. The relative viability ([9]; first compound 0.1 µM) was 0.921, the relative viability ([9]; first compound 0.3162 µM) was 1.12 and the relative viability ([9]; first compound 1 µM) was 0.935. The relative viability ([10]; first compound 0.01 µM) was 0.65, the relative viability ([10]; first compound 0.03162 µM) was 0.66 and the relative viability ([10]; first compound 0.1 µM) was 0.637. For the same compound, the relative viability ([10]; first compound 0.3162 µM) was 0.502, the relative viability ([10]; first compound 1 µM) was 0.156 and the relative viability ([11]; first compound 0.01 µM) was 0.516. The relative viability ([11]; first compound 0.03162 µM) was 0.45, the relative viability ([11]; first compound 0.1 µM) was 0.508 and the relative viability ([11]; first compound 0.3162 µM) was 0.504. For the same compound, the relative viability ([11]; first compound 1 µM) was 0.474, the relative viability ([12]; first compound 0.01 µM) was 0.463 and the relative viability ([12]; first compound 0.03162 µM) was 0.455. The relative viability ([12]; first compound 0.1 µM) was 0.481, the relative viability ([12]; first compound 0.3162 µM) was 0.425 and the relative viability ([12]; first compound 1 µM) was 0.45. The relative viability ([13]; first compound 0.01 µM) was 0.66, the relative viability ([13]; first compound 0.03162 µM) was 0.623 and the relative viability ([13]; first compound 0.1 µM) was 0.568. For the same compound, the relative viability ([13]; first compound 0.3162 µM) was 0.562, the relative viability ([13]; first compound 1 µM) was 0.639 and the relative viability ([14]; first compound 0.03162 µM) was 0.968. For the same compound, the relative viability ([14]; first compound 0.1 µM) was 0.724, the relative viability ([14]; first compound 0.3162 µM) was 0.832 and the relative viability ([14]; first compound 1 µM) was 0.574. For the same compound, the relative viability ([15]; first compound 0.01 µM) was 0.628, the relative viability ([15]; first compound 0.03162 µM) was 0.581 and the relative viability ([15]; first compound 0.1 µM) was 0.673. For the same compound, the relative viability ([15]; first compound 0.3162 µM) was 0.61, the relative viability ([15]; first compound 1 µM) was 0.559 and the relative viability ([16]; first compound 0.01 µM) was 0.653. For the same compound, the relative viability ([16]; first compound 0.03162 µM) was 0.535, the relative viability ([16]; first compound 0.1 µM) was 0.602 and the relative viability ([16]; first compound 0.3162 µM) was 0.517. The relative viability ([16]; first compound 1 µM) was 0.483, the relative viability ([17]; first compound 0.03162 µM) was 0.501 and the relative viability ([17]; first compound 0.1 µM) was 0.525. For the same compound, the relative viability ([17]; first compound 0.3162 µM) was 0.536, the relative viability ([17]; first compound 1 µM) was 0.527 and the relative viability ([18]; first compound 0.01 µM) was 0.581. The relative viability ([18]; first compound 0.03162 µM) was 0.635, the relative viability ([18]; first compound 0.1 µM) was 0.769 and the relative viability ([18]; first compound 0.3162 µM) was 0.697. It also gave a relative viability ([18]; first compound 1 µM) of 0.59, a relative viability ([19]; first compound 0.01 µM) of 0.35 and a relative viability ([19]; first compound 0.03162 µM) of 0.345. The relative viability ([19]; first compound 0.1 µM) was 0.312, the relative viability ([19]; first compound 0.3162 µM) was 0.348 and the relative viability ([19]; first compound 1 µM) was 0.278. The relative viability ([20]; first compound 0.01 µM) was 0.184, the relative viability ([20]; first compound 0.03162 µM) was 0.175 and the relative viability ([20]; first compound 0.1 µM) was 0.157. It also gave a relative viability ([20]; first compound 0.3162 µM) of 0.194, a relative viability ([20]; first compound 1 µM) of 0.179 and a relative viability ([21]; first compound 0.03162 µM) of 0.607. It also gave a relative viability ([21]; first compound 0.1 µM) of 0.616, a relative viability ([21]; first compound 0.3162 µM) of 0.539 and a relative viability ([21]; first compound 1 µM) of 0.58.
